Entries after “also recorded” stand apart in the source; their conditions may differ. Read-outs that look alike come from different tables or passages of the source. Where only a bound is given, the exact number is not on record here.

Experiment [1] has as its system HIF-2α HIS TAG-PASB Domain. Description: biochemical. The class given is binding. From the text: (§1) The term “scintillation proximity assay” (SPA) refers to a homogenous assay in which light is emitted when a radiolabeled ligand is brought into close proximity to a radiosensitive bead. The assay typically contains a target protein that contains a tag (e.g., His Tag, Glutathione S-transferase Tag). The tag on the protein is used to bind the target protein to the scintillation bead. Radiolabeled ligand (e.g., labeled with tritium) that binds to the protein is now in close proximity to the bead, and when the raidolabel (e.g., tritium) decays, the high energy particle hits the bead resulting in the emission of light that is detected by a detector, such as photomultiplier tube or CCD camera. When unlabeled ligands or compounds that bind to the protein are used in the assay, they displace the radiolabeled ligand, resulting in loss of signal.
(§2) The total assay volume was about 100 μL in the following configuration: 2-μL compound in DMSO, 88 μL buffer with protein and probe and 10 μL of SPA beads. […] To each compound, 88 μL of the buffer solution was then added. […] The percent inhibition was determined and IC50 values were calculated using the Dotmatics system based on the following equation: % inhibition=[(high control−sample)/(high control−low control)]×100.

The subject of a further experiment is 786-O-Hif-Luc cells. The experiment is described as follows: Luciferase Assay (HIF responsive element reporter). Format: cell-based. To be noted: read-out: Mean Luciferease EC50. Here is the method: A pool of infected cells were then selected against 2 μg/mL of puromycin (P8833, Sigma) for 10 days followed by limited dilution to select single clones.
Each concentration was tested in triplicate. After about 24 hours, luciferase activity was determined using ONE-Glo Luciferase Assay Reagent (E6110, Promega) following the manufacturer's recommended procedure. EC50 were calculated by using Dotmatics software.

Experiment [2] concerns HIF-2α and HIF-2α-regulated genes in 786-O xenograft. Description: In vivo PK/PD study: tumor mRNA levels by qRT-PCR. On the set-up: species or system SCID/Biege mice. To be noted: 786-O xenograft mice, 10 mg/kg oral gavage three times at 12 hour intervals, 12 hours post last dose. Here is the method:
(§3) About 5×10^6 renal cell carcinoma 786-O tumor cells (ATCC® CRL-1932™, VHL and HIF-1α null cell line) in PBS and Matrigel (1:1 in volume) were injected subcutaneously in the right flanks of SCID/Biege mice at 6-7 weeks of age for xenograft development. When the xenografts reached about 450 mm^3 in size, the tumor-bearing mice were randomly divided into two groups (4 mice in each group). […] Animals were sacrificed at 12 hours post last dose. Tumors and plasma were collected from each animal. Total RNA was extracted from the tumors. The mRNA levels of HIF-2α and its respective target genes were determined by qRT-PCR.
A general note: Quantitative PCR measures a nucleic acid by following its amplification.

The next experiment concerns human VEGFA. The experiment is described as follows: In vivo PK/PD study: plasma human VEGFA by ELISA. To be noted: 786-O tumor-bearing mice, 10 mg/kg oral gavage three times at 12 hour intervals. On the set-up: species or system SCID/Biege mice. Here is the method: as §3
The plasma level of human VEGFA was determined by ELISA assay.
On the technique in general: An ELISA detects its analyte on a solid surface through an enzyme-linked reagent.

Experiment [3] relates to renal cell carcinoma 786-O xenograft. The experiment is described as follows: In vivo efficacy study, 786-O xenograft. Details: species or system SCID/Biege mice.
Experiment [4] has as its system VEGF in culture medium of 786-O cells. The experiment is described as follows: VEGF ELISA Assay. Format: cell-based. The protocol: Four hours later, serial dilutions of 10× compound stocks were made in growth medium from 500×DMSO stocks, and 20 μL of those 10× stocks were added to each well to make final concentrations as follows (μM): 20, 6.7, 2.2, 0.74, 0.25, 0.082, 0.027, 0.009, 0.003, 0.001, 0. Each concentration had duplicated wells. About twenty hours later, the growth medium was removed by suction and each well was supplied with 180 μL of growth medium. About 20 μl freshly-made 10× compound stocks were added to each well. […] The EC50 was calculated by GraphPad Prism using the dose-response-inhibition (four parameter) equation. The cell seeded plate was then subjected to CellTiter-Glo luminescence cell viability assay (Promega) by adding about 50 μL of Celltiter Glo reagent into each well and shaking the plate for 8 minutes at 550 rpm (Thermomixer R, Eppendorf). The luminescence signals were read in a plate reader (3 second delay, 0.5 second/well integration time, Synergy 2 multi Detection Microplate reader) immediately.

In experiment [5] the target is HIF-2α HIS TAG-PASB Domain (Homo sapiens, UniProt Q99814). Description: biochemical. The class given is binding.
HIF-2α HIS TAG-PASB Domain (Homo sapiens, UniProt Q99814), sequence (Q99814 whole entry, looked up, the tested form may be a part): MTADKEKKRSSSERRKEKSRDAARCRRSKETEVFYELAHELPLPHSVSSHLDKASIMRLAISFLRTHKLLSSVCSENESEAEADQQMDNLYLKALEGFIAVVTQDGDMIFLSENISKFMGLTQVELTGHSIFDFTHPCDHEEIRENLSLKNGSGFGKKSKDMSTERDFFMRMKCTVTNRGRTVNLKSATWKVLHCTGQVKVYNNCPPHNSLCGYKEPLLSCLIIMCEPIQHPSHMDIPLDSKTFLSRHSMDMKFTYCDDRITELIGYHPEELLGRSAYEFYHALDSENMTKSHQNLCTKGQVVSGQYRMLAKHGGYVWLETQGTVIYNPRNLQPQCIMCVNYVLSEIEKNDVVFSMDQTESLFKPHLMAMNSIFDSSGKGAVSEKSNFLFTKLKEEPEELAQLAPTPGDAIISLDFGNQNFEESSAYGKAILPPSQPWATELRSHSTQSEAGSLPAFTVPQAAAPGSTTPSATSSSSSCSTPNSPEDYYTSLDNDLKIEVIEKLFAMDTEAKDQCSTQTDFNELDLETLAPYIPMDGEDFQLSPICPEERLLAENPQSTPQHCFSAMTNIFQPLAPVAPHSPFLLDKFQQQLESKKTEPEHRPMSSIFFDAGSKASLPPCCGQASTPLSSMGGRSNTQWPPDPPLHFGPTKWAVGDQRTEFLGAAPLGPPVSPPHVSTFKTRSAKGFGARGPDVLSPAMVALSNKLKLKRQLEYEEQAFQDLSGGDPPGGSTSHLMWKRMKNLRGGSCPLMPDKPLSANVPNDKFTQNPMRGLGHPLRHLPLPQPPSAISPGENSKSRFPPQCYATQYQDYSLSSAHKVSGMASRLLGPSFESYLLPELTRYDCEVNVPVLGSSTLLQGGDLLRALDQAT
Text: as §1, §2

[6] abbreviates: displacement of Compound 120 probe, mean, read-out: Mean SPA IC50.
The mark [7] stands for this setting: 786-O-Hif-Luc cells, about 24 hours.
Where [8] appears, read: 24 h, 786-O-Hif-Luc cells, about 24 hours.

A word on the IC50: it is the concentration that gives 50% inhibition. Consider `O=S1(=O)C[C@@H](O)c2c1ccc(Oc1cc(F)cc(Cl)c1)c2Br` [(3S)-4-bromo-5-(3-chloro-5-fluoro-phenoxy)-1,1-dioxo-2,3-dihydrobenzothiophen-3-ol], for which the IC50 in experiment [1] (unnumbered compounds listed by structure and name, read-out: IC50 value in SPA) was > 100000 nM.

Usually EC50 stands for the concentration at which the effect is half-maximal. Take `N#Cc1cc(F)cc(Oc2ccc3c(c2C(F)F)[C@@H](O)C(F)(F)S3(=O)=O)c1` [Compound 3, (R)-3-((4-(Difluoromethyl)-2,2-difluoro-3-hydroxy-1,1-dioxido-2,3-dihydrobenzo[b]thiophen-5-yl)oxy)-5-fluorobenzonitrile]: the IC50 in experiment [1] (setting [6]) is […]. Besides, in the experiment with 786-O-Hif-Luc cells (setting [7]), the concentration for a half-maximal effect (EC50) worked out at 7 nM. In experiment [2], the “Tumor mRNA for HIF-1α and HIF-1α specific target genes (PGK1 and PDK1)” value is “no significant effect; also recorded: no significant changes”; the “Tumor mRNA for HIF-2α and HIF-2α specific target genes (PAI-1 and CCND1)” value is recorded as “reduced; also recorded: significant reduction”. For the same molecule, the “Plasma level of human VEGFA” value in the experiment on human VEGFA was “reduced; also recorded: undetectable level”. Besides, the “Effect on tumor size” value in experiment [3] (10 mg/kg b.i.d. oral gavage for 21 days, versus vehicle) is “tumor size reduction and regression; also recorded: statistically significant reduction of tumor size”. Moreover, in experiment [3] (10 mg/kg b.i.d. oral gavage, after 21 days of dosing), the “Tumor size Mean ± SEM” value was 57 ± 5.6 mm^3.

`N#Cc1c(Oc2cc(F)cc(Cl)c2)ccc2c1C(O)CS2(=O)=O` (centres unmarked) [Compound 7, 5-(3-chloro-5-fluorophenoxy)-3-hydroxy-2,3-dihydrobenzo[b]thiophene-4-carbonitrile 1,1-dioxide]: the 50% effective concentration (EC50) in experiment [4] (Homo sapiens, 786-0) was found to be 330 nM; with 786-O-Hif-Luc cells (setting [7]), 450 nM.

`O=S1(=O)c2ccc(Oc3cc(F)cc(Cl)c3)c(Br)c2C(O)C1(F)F` (centres unmarked) [Compound 9, 4-Bromo-5-(3-chloro-5-fluorophenoxy)-2,2-difluoro-3-hydroxy-2,3-dihydrobenzo[b]thiophene 1,1-dioxide]: the IC50 in experiment [5] (setting [6]) came out at 2 nM. Besides, the EC50 amounted to 65 nM in experiment [4] (Homo sapiens, 786-0) and 50 nM in the experiment on 786-O-Hif-Luc cells (setting [7]).

As for `N#Cc1c(Oc2cc(F)cc(Cl)c2)ccc2c1C(O)C(F)(F)S2(=O)=O` (centres unmarked) [Compound 10, 5-(3-chloro-5-fluorophenoxy)-2,2-difluoro-3-hydroxy-2,3-dihydrobenzo[b]thiophene-4-carbonitrile 1,1-dioxide], the IC50 in experiment [1] (setting [6]) was determined as 45 nM. In addition, the EC50 in the experiment with 786-O-Hif-Luc cells (setting [7]) amounted to 4170 nM.

For the molecule `Cc1c(Oc2cc(F)cc(Cl)c2)ccc2c1C(O)C(F)(F)S2(=O)=O` (centres unmarked) [Compound 13, 5-(3-Chloro-5-fluorophenoxy)-2,2-difluoro-3-hydroxy-4-methyl-2,3-dihydrobenzo[b]thiophene 1,1-dioxide], in experiment [1] (setting [6]), the IC50 was 15 nM. Moreover, in the experiment on 786-O-Hif-Luc cells (24 h), the 50% effective concentration (EC50) amounted to 450 nM.

Consider `O=S1(=O)c2ccc(Oc3cc(F)cc(Cl)c3)cc2C(O)C1(F)F` (centres unmarked) [Compound 16, 5-(3-Chloro-5-fluorophenoxy)-2,2-difluoro-3-hydroxy-2,3-dihydrobenzo[b]thiophene 1,1-dioxide], for which the IC50 in experiment [1] (setting [6]) amounted to 1880 nM.

On to `N=S1(=O)c2ccc(Oc3cc(F)cc(F)c3)c(Br)c2C(O)C1(F)F` (centres unmarked) [Compound 31, 4-Bromo-5-(3,5-difluorophenoxy)-2,2-difluoro-3-hydroxy-1-imino-2,3-dihydro-1H-1λ^4-benzo[b]thiophene 1-oxide], for which, in experiment [5] (setting [6]), the concentration for half-maximal inhibition (IC50) came out at 4140 nM. In the experiment with 786-O-Hif-Luc cells (setting [8]), the EC50 was 540 nM.

For the molecule `O=S1(=O)c2ccc(Oc3cncc(Cl)c3)c(C(F)F)c2C(O)C1(F)F` (centres unmarked) [Compound 35, 5-((5-Chloropyridin-3-yl)oxy)-4-(difluoromethyl)-2,2-difluoro-3-hydroxy-2,3-dihydrobenzo[b]thiophene 1,1-dioxide], in experiment [1] (setting [6]), the 50% inhibitory concentration (IC50) stood at 230 nM. Further, the EC50 with 786-O-Hif-Luc cells (24 h) was found to be 150 nM.

`N#Cc1cncc(Oc2ccc3c(c2C(F)F)C(O)C(F)(F)S3(=O)=O)c1` (centres unmarked) [Compound 37, 5-((4-(Difluoromethyl)-2,2-difluoro-3-hydroxy-1,1-dioxido-2,3-dihydrobenzo[b]thiophen-5-yl)oxy)nicotinonitrile]: the IC50 in experiment [1] (setting [6]) was 120 nM. Further, the EC50 in the experiment with 786-O-Hif-Luc cells (setting [7]) came to 170 nM.

As for `N#Cc1cc(F)cc(Oc2ccc3c(c2C(F)F)C(=O)C(F)(F)S3(=O)=O)c1` [Compound 39, 3-((4-(Difluoromethyl)-2,2-difluoro-1,1-dioxido-3-oxo-2,3-dihydrobenzo[b]thiophen-5-yl)oxy)-5-fluorobenzonitrile], the concentration for half-maximal inhibition (IC50) in experiment [1] (setting [6]) came to 2420 nM. Besides, the EC50 with 786-O-Hif-Luc cells (setting [7]) turned out to be 2790 nM.

Turning to `[2H][C@@]1(O)c2c(ccc(Oc3cc(F)cc(C#N)c3)c2C(F)F)S(=O)(=O)C1(F)F` [Compound 43, (R)-3-((4-(Difluoromethyl)-2,2-difluoro-3-hydroxy-1,1-dioxido-2,3-dihydrobenzo[b]thiophen-5-yl-3-d)oxy)-5-fluorobenzonitrile], in experiment [1] (setting [6]), the IC50 was […]. Also, the EC50 in the experiment on 786-O-Hif-Luc cells (setting [7]) stood at 6 nM.

As to `N=S1(=O)c2ccc(Oc3cc(F)cc(F)c3)c(C(F)F)c2C(O)C1(F)F` (centres unmarked) [Compound 53, 4-(difluoromethyl)-5-(3,5-difluorophenoxy)-2,2-difluoro-3-hydroxy-1-imino-2,3-dihydro-1H-1λ^4-benzo[b]thiophene 1-oxide], the EC50 is 67 nM in experiment [4] and 39 nM in the experiment on 786-O-Hif-Luc cells (setting [7]).

`O=S1(=O)c2ccc(Oc3cc(F)cc(Cl)c3)c(Br)c2[C@H](O)C1(F)F` [Compound 59, (3S)-4-Bromo-5-(3-chloro-5-fluoro-phenoxy)-2,2-difluoro-1,1-dioxo-3H-benzothiophen-3-ol]: in experiment [5] (setting [6]), the half-inhibitory concentration (IC50) is 60 nM. For the same molecule, the EC50 with 786-O-Hif-Luc cells (setting [7]) came to 170 nM.

`CC1(C)C(O)c2c(ccc(Oc3cc(F)cc(Cl)c3)c2Br)S1(=O)=O` (centres unmarked) [Compound 60, 4-Bromo-5-(3-chloro-5-fluoro-phenoxy)-2,2-dimethyl-1,1-dioxo-3H-benzothiophen-3-ol]: the half-inhibitory concentration (IC50) in experiment [1] (setting [6]) was found to be 21900 nM.

`N#Cc1c(Oc2cc(F)cc(F)c2)ccc2c1[C@@H](O)CS2(=O)=O` [Compound 68, (R)-5-(3,5-difluorophenoxy)-3-hydroxy-2,3-dihydrobenzo[b]thiophene-4-carbonitrile 1,1-dioxide] registered an IC50 in experiment [5] of 125 nM. Moreover, the EC50 with 786-O-Hif-Luc cells (setting [8]) was 370 nM.

As to `N#Cc1c(Oc2cccc(F)c2)ccc2c1[C@@H](O)CS2(=O)=O` [Compound 76, (R)-5-(3-fluorophenoxy)-3-hydroxy-2,3-dihydrobenzo[b]thiophene-4-carbonitrile 1,1-dioxide], in experiment [5] (setting [6]), the IC50 amounted to 750 nM. Further, in the experiment with 786-O-Hif-Luc cells (setting [8]), the EC50 came out at 490 nM.

As to `N#Cc1cncc(Oc2ccc3c(c2Br)[C@@H](O)C(F)(F)S3(=O)=O)c1` [Compound 78, (R)-5-((4-Bromo-2,2-difluoro-3-hydroxy-1,1-dioxido-2,3-dihydrobenzo[b]thiophen-5-yl)oxy)nicotinonitrile], the IC50 in experiment [5] (setting [6]) was 120 nM. In addition, the EC50 stood at 330 nM in experiment [4] (Homo sapiens, 786-0) and 95 nM in the experiment on 786-O-Hif-Luc cells (setting [8]).

On to `C[C@@]1(O)c2c(ccc(Oc3cc(F)cc(C#N)c3)c2C#N)S(=O)(=O)C1(F)F` [Compound 112, (R)-5-(3-cyano-5-fluorophenoxy)-2,2-difluoro-3-hydroxy-3-methyl-2,3-dihydrobenzo[b]thiophene-4-carbonitrile 1,1-dioxide], for which the EC50 turned out to be 31 nM in experiment [4] (Homo sapiens, 786-0) and 18 nM in the experiment with 786-O-Hif-Luc cells (setting [8]).

As for `N#Cc1cc(F)cc(Oc2ccc3c(c2C#N)C(N)C(F)(F)S3(=O)=O)c1` (centres unmarked) [Compound 118, 3-Amino-5-(3-cyano-5-fluorophenoxy)-2,2-difluoro-2,3-dihydrobenzo[b]thiophene-4-carbonitrile 1,1-dioxide], the IC50 in experiment [5] (setting [6]) came to 1230 nM. In addition, the EC50 in the experiment on 786-O-Hif-Luc cells (setting [8]) came out at 4600 nM.

The record behind these values is patent US9884843B2 (Peloton Therapeutics, Inc., priority 2013, dated 2018).
